Data as given in patent US20240140938A1, “PREPARATION OF TETRAHYDROINDAZOLE DERIVATIVES AS NOVEL DIACYLGLYCERIDE O-ACYLTRANSFERASE 2 INHIBITORS” (MERCK SHARP & DOHME LLC, priority 2020, published 2024).

Target: human DGAT2 (hDGAT2) (Homo sapiens (Human), UniProt Q96PD7)
Assay: DGAT2 Enzymatic Activity Assay
Format: biochemical
Details: hDGAT2 Sf-9 membrane prep, 13C18-triolein product by LC/MS/MS
In short: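 Enzyme source was membrane fractions from Sf-9 cells infected with untagged hDGAT2 baculovirus. Reactions ran at room temperature, and product 13C18-triolein was quantified by LC/MS/MS against a 13C21-triolein internal standard. % inhibition was normalised to high and low controls, and IC50 derived from it.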

[1] = 25 μM diolein, 5 μM 13C oleoyl-CoA

Sequence of human DGAT2 (hDGAT2) (Q96PD7 whole entry): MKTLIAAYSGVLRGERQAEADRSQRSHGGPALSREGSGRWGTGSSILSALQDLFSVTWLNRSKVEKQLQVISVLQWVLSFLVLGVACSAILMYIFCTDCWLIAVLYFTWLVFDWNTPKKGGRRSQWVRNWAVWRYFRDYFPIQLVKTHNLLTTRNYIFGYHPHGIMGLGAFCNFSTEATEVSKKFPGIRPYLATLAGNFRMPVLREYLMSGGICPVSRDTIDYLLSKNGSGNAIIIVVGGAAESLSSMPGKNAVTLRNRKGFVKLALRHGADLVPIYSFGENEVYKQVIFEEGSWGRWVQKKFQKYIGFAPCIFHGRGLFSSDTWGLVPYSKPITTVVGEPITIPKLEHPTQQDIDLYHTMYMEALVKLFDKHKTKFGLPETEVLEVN

Compound	IC50 [1] [nM]	IC50 (unit given as nm) [nM]
Cc1nc2c(-c3nn(C(C)C)c4c3CC[C@@H](C(=O)NC3(C)CS(=O)(=O)C3)C4)cccc2o1 [Example 93, (R)-1-isopropyl-N-(3-methyl-1,1-dioxidothietan-3-yl)-3-(2-methylbenzo[d]oxazol-4-yl)-4,5,6,7-tetrahydro-1H-indazole-6-carboxamide]	> 10000	–
CC(C)n1nc(-c2cncc(OC(F)F)c2)c2c1C[C@H](C(=O)NC1(C)CCS(=O)(=O)CC1)CC2 [Example 56, (R)-3-(5-(difluoromethoxy)pyridin-3-yl)-1-isopropyl-N-(4-methyl-1,1-dioxidotetrahydro-2H-thiopyran-4-yl)-4,5,6,7-tetrahydro-1H-indazole-6-carboxamide]	414	–
CC(C)n1nc(-c2cccc(OC(F)F)c2)c2c1CC(C(=O)NC1(C)CS(=O)(=O)C1)OC2 (single isomer, unassigned) [EX-134b, 3-(3-(difluoromethoxy)phenyl)-1-isopropyl-N-(3-methyl-1,1-dioxidothietan-3-yl)-1,4,6,7-tetrahydropyrano[4,3-c]pyrazole-6-carboxamide]	7610	–
CC(C)Oc1ccc(F)c(-c2nn(C(C)C)c3c2CC[C@@H](C(=O)NC2(C)CS(=O)(=O)C2)C3)c1 [Example 81, (R)-3-(2-fluoro-5-isopropoxyphenyl)-1-isopropyl-N-(3-methyl-1,1-dioxidothietan-3-yl)-4,5,6,7-tetrahydro-1H-indazole-6-carboxamide]	24.5	–
CC1(NC(=O)[C@@H]2CCc3c(-c4cc(OC(F)F)ccc4F)nn(C4CCC4)c3C2)CS(=O)(=O)C1 [Example 57, (R)-1-cyclobutyl-3-(5-(difluoromethoxy)-2-fluorophenyl)-N-(3-methyl-1,1-dioxidothietan-3-yl)-4,5,6,7-tetrahydro-1H-indazole-6-carboxamide]	22.8	–
CC(C)n1nc(-c2cc(OC(F)F)ccc2F)c2c1C[C@H](C(=O)NC1(C)CS(=O)(=O)C1)CC2 [Example 82, (R)-3-(5-(difluoromethoxy)-2-fluorophenyl)-1-isopropyl-N-(3-methyl-1,1-dioxidothietan-3-yl)-4,5,6,7-tetrahydro-1H-indazole-6-carboxamide]	30.8	–
CC(C)n1nc(-c2cc(OC3CC3)ncc2F)c2c1C[C@H](C(=O)NC1(C)CCS(=O)(=O)CC1)CC2 [Example 37, (R)-3-(2-cyclopropoxy-5-fluoropyridin-4-yl)-1-isopropyl-N-(4-methyl-1,1-dioxidotetrahydro-2H-thiopyran-4-yl)-4,5,6,7-tetrahydro-1H-indazole-6-carboxamide]	93.2	–
CC1(NC(=O)[C@@H]2CCc3c(-c4cncc(OC(F)F)c4)nn(-c4ccc(F)cn4)c3C2)CS(=O)(=O)C1 [Example 12, (R)-3-(5-(difluoromethoxy)pyridin-3-yl)-1-(5-fluoropyridin-2-yl)-N-(3-methyl-1,1-dioxidothietan-3-yl)-4,5,6,7-tetrahydro-1H-indazole-6-carboxamide]	65.8	–
CCOc1cc(-c2nn(C(C)C(C)(C)O)c3c2CC[C@@H](C(=O)NC2(C)CCS(=O)(=O)CC2)C3)c(F)cn1 (single isomer, unassigned) [Example 109a]	49.5	–
CC(C)n1nc(-c2cncc(C(=O)NC(C)(C)C)c2)c2c1C[C@H](C(=O)NC1(C)CS(=O)(=O)C1)CC2 [Example 95, (R)-3-(5-(tert-butylcarbamoyl)pyridin-3-yl)-1-isopropyl-N-(3-methyl-1,1-dioxidothietan-3-yl)-4,5,6,7-tetrahydro-1H-indazole-6-carboxamide]	> 10000	–
CC(C)n1nc(-c2cc(C3CC3)ccc2F)c2c1C[C@H](C(=O)NC1(C)CS(=O)(=O)C1)CC2 [Example 83, (R)-3-(5-cyclopropyl-2-fluorophenyl)-1-isopropyl-N-(3-methyl-1,1-dioxidothietan-3-yl)-4,5,6,7-tetrahydro-1H-indazole-6-carboxamide]	46	–
CC(C)n1nc(-c2cc(OC(F)F)ccc2Cl)c2c1C[C@H](C(=O)NC1(C)CS(=O)(=O)C1)CC2 [Example 84, (R)-3-(2-chloro-5-(difluoromethoxy)phenyl)-1-isopropyl-N-(3-methyl-1,1-dioxidothietan-3-yl)-4,5,6,7-tetrahydro-1H-indazole-6-carboxamide]	7.92	–
CCc1ccc(F)c(-c2nn(C(C)C)c3c2CC[C@@H](C(=O)NC2(C)CS(=O)(=O)C2)C3)c1 [Example 100, (R)-3-(5-ethyl-2-fluorophenyl)-1-isopropyl-N-(3-methyl-1,1-dioxidothietan-3-yl)-4,5,6,7-tetrahydro-1H-indazole-6-carboxamide]	158	–
CC(C)n1nc(-c2cccc(OC(F)(F)C(F)F)c2)c2c1C[C@H](C(=O)NC1(C)CCS(=O)(=O)CC1)CC2 [Example 36, (R)-1-isopropyl-N-(4-methyl-1,1-dioxidotetrahydro-2H-thiopyran-4-yl)-3-(3-(1,1,2,2-tetrafluoroethoxy)phenyl)-4,5,6,7-tetrahydro-1H-indazole-6-carboxamide]	353	–
CC1(NC(=O)[C@@H]2CCc3c(-c4cccc(OC(F)F)c4)nn(-c4ccc(F)cn4)c3C2)CS(=O)(=O)C1 [Example 4, (R)-3-(3-(difluoromethoxy)phenyl)-1-(5-fluoropyridin-2-yl)-N-(3-methyl-1,1-dioxidothietan-3-yl)-4,5,6,7-tetrahydro-1H-indazole-6-carboxamide]	5.1	–
CC1(NC(=O)C2COc3c(-c4cccc(OC(F)F)c4)nn(-c4ccc(F)cn4)c3C2)CCS(=O)(=O)C1 (centres unmarked) [Example 118, 3-(3-(difluoromethoxy)phenyl)-1-(5-fluoropyridin-2-yl)-N-(3-methyl-1,1-dioxidotetrahydrothiophen-3-yl)-1,5,6,7-tetrahydropyrano[3,2-c]pyrazole-6-carboxamide]	–	0.44
CC1(NC(=O)[C@@H]2CCc3c(-c4cccc(OC(F)F)c4)nn(-c4ncc(F)cc4F)c3C2)CS(=O)(=O)C1 [Example 9, (R)-3-(3-(difluoromethoxy)phenyl)-1-(3,5-difluoropyridin-2-yl)-N-(3-methyl-1,1-dioxidothietan-3-yl)-4,5,6,7-tetrahydro-1H-indazole-6-carboxamide]	10.2	–
CCNS(=O)(=O)c1cccc(-c2nn(C(C)C)c3c2CC[C@@H](C(=O)NC2(C)CS(=O)(=O)C2)C3)c1 [Example 99, (R)-3-(3-(N-ethylsulfamoyl)phenyl)-1-isopropyl-N-(3-methyl-1,1-dioxidothietan-3-yl)-4,5,6,7-tetrahydro-1H-indazole-6-carboxamide]	> 10000	–
CCOc1cc(-c2nn(C(C)C)c3c2CC[C@@H](C(=O)NC2(C)CCS(=O)(=O)CC2)C3)c(Cl)cn1 [Example 39, (R)-3-(5-chloro-2-ethoxypyridin-4-yl)-1-isopropyl-N-(4-methyl-1,1-dioxidotetrahydro-2H-thiopyran-4-yl)-4,5,6,7-tetrahydro-1H-indazole-6-carboxamide]	7.7	–
O=C(NC1(CO)CCC(F)(F)C1)[C@@H]1CCc2c(-c3cccc(OC(F)F)c3)nn(-c3ccc(F)cn3)c2C1 (single isomer, unassigned) [Example 8a]	5	–
CCOc1cc(-c2nn(C(C)C(C)(C)O)c3c2CC[C@@H](C(=O)N[C@@]2(C)CCS(=O)(=O)C2)C3)c(F)cn1 (single isomer, unassigned) [Example 108a]	44.1	–
[2H]C([2H])([2H])C([2H])(n1nc(-c2cc(OCC)ncc2F)c2c1C[C@H](C(=O)NC1(C)CCS(=O)(=O)CC1)CC2)C([2H])([2H])[2H] [Example 47, (R)-3-(2-ethoxy-5-fluoropyridin-4-yl)-N-(4-methyl-1,1-dioxidotetrahydro-2H-thiopyran-4-yl)-1-(propan-2-yl-d7)-4,5,6,7-tetrahydro-1H-indazole-6-carboxamide]	65.9	–
CC(C)n1nc(-c2cc(C3CC3)ccc2F)c2c1C[C@H](C(=O)NC1(C)CS(=O)(=O)C1)OC2 [Example 128, (R)-3-(5-cyclopropyl-2-fluorophenyl)-1-isopropyl-N-(3-methyl-1,1-dioxidothietan-3-yl)-1,4,6,7-tetrahydropyrano[4,3-c]pyrazole-6-carboxamide]	320	–
CC(C)n1nc(-c2cccc(OCC(F)(F)F)c2)c2c1C[C@H](C(=O)N[C@@]1(C)CCS(=O)(=O)C1)CC2 [Example 35, (R)-1-isopropyl-N-((S)-3-methyl-1,1-dioxidotetrahydrothiophen-3-yl)-3-(3-(2,2,2-trifluoroethoxy)phenyl)-4,5,6,7-tetrahydro-1H-indazole-6-carboxamide]	35.2	–
CC(C)n1nc(-c2cccc(OC(F)F)c2)c2c1CC(C(=O)NC1(C)CC(F)(F)C1)CO2 (racemic) [Example 124, N-(3,3-difluoro-1-methylcyclobutyl)-3-(3-(difluoromethoxy)phenyl)-1-isopropyl-1,5,6,7-tetrahydropyrano[3,2-c]pyrazole-6-carboxamide]	56.4	–
N#CC1(NC(=O)[C@@H]2CCc3c(-c4cncc(OC(F)F)c4)nn(-c4ccc(F)cn4)c3C2)CCOC1 (single isomer, unassigned) [Example 15a]	17.4	–
CCOc1ccc(F)c(-c2nn(C(C)C)c3c2CC[C@@H](C(=O)NC2(C)CCS(=O)(=O)CC2)C3)c1 [Example 54, (R)-3-(5-ethoxy-2-fluorophenyl)-1-isopropyl-N-(4-methyl-1,1-dioxidotetrahydro-2H-thiopyran-4-yl)-4,5,6,7-tetrahydro-1H-indazole-6-carboxamide]	1.8	–
CC1(NC(=O)[C@@H]2CCc3c(-c4cc(OC(F)F)ccc4F)nn(C4CCCC4O)c3C2)CS(=O)(=O)C1 (single isomer, unassigned) [Example 114b]	129	–
CC(C)(N)c1cccc(-c2nn(-c3ccc(F)cc3)c3c2CC[C@@H](C(=O)N[C@@]2(C)CCS(=O)(=O)C2)C3)c1 [Example 18, (R)-3-(3-(2-aminopropan-2-yl)phenyl)-1-(4-fluorophenyl)-N-((S)-3-methyl-1,1-dioxidotetrahydrothiophen-3-yl)-4,5,6,7-tetrahydro-1H-indazole-6-carboxamide]	> 10000	–
